Data from patent publication US10738041B2, “Ferroportin inhibitors” (Vifor (International) AG, priority 2015, dated 2020).

Target: T1, human Fpn-GFP fusion (Homo sapiens, UniProt Q9NP59)
T1 construct: expressed in transfected cells; host or cells: HEK-293 cell line #354 (derivative of HEK-293 Tet-ON Advanced, Clontech)
T1 sequence (Q9NP59 1-571): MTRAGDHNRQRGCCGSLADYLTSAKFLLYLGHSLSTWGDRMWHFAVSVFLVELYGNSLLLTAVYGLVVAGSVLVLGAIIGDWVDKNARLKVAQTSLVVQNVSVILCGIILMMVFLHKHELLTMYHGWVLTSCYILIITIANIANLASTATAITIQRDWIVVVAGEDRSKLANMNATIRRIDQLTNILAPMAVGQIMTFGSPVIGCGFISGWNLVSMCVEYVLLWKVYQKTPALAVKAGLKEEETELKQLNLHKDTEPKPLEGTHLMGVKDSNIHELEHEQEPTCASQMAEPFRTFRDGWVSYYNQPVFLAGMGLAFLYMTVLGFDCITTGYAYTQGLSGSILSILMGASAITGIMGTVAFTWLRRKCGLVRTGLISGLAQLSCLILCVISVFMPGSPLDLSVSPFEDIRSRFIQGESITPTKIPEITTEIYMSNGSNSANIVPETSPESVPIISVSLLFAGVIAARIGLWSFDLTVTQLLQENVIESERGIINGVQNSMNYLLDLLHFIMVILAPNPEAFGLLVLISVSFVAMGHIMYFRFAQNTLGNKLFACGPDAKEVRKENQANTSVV
Experiment: Inhibition of ferroportin mediated iron export activity in an iron response assay (BLAzer)
Type: cell-based
Conditions: not given
Source text: Intracellular iron levels are indirectly measured in this assay by monitoring the activity of a beta-lactamase (BLA) reporter gene fused to the human ferritin promoter and the associated iron regulatory element (IRE) contained within the 5′ untranslated region of the ferritin mRNA. Expression of ferroportin (Fpn) in such a cell line leads to iron efflux and lower iron levels as reflected by lower activity of the reporter gene. On the other hand, inhibition of Fpn-mediated iron efflux results in elevated cellular iron levels which is detected as increased reporter gene activity. Small molecular weight Fpn inhibitor compounds were tested for dose-dependent effects in this in vitro iron response assay as described below.
The HEK-293 cell line #354 was generated by stable integration of (i) a human Fpn-GFP fusion construct inserted in a derivative of the doxycycline-inducible pTRE-Tight-BI plasmid (Clontech, Cat. 631068) and (ii) a human ferritin promoter-BLA reporter gene into a derivative of the HEK-293 Tet-ON Advanced cell line (Clontech). […] After overnight incubation, 10 μl/well of dilution series of the test compounds were added in quadruplicates and plates were further incubated overnight at 37° C. with 5% CQ. Cells were washed 3 times with HBSS leaving 25 μl per well. BLA activity was detected by adding 5 μl/well of the GeneBlazer reagent CCF4-AM (Invitrogen, Cat. K1085) to the cells. After incubation of the plates in the dark at 18° C. for 60 min., blue and green fluorescence signals were measured in a Safre2 fluorescence plate reader (Tecan) with excitation at 410 nm and emissions at 458 nm (blue) and 522 nm (green). The ratio of blue/green fluorescence as a measure for BLA activity was calculated and EC50 values were determined with the calculated blue/green fluorescence ratios as described for the hepcidin internalization assay.

Structure (SMILES) | EC50
CC[C@H](C)[C@@H]1NC(=O)[C@@H](NC(=O)[C@@H](NC(=O)[C@@H]2CCCN2C(=O)[C@H](Cc2ccccc2)NC(=O)[C@H](Cc2c[nH]cn2)NC(=O)[C@@H](NC(=O)[C@@H](N)CC(=O)O)[C@@H](C)O)[C@@H](C)CC)CSSC[C@@H](C(=O)N[C@@H](CCCCN)C(=O)N[C@H](C(=O)O)[C@@H](C)O)NC(=O)[C@@H]2CSSC[C@@H]3NC(=O)[C@@H]4CSSC[C@H](NC(=O)[C@H](Cc5ccccc5)NC1=O)C(=O)N[C@@H](CSSC[C@H](NC(=O)[C@H](CCCCN)NC(=O)[C@H](CO)NC(=O)[C@H](CCCNC(=N)N)NC(=O)[C@H](Cc1c[nH]cn1)NC3=O)C(=O)NCC(=O)N[C@@H](CCSC)C(=O)N2)C(=O)NCC(=O)N4 [hepcidin, reference compound] | 96 ± 63 nM

Same assay, conditions: average of multiple measurements; HEK-293 cell line #354; read-out: BLAzer EC50

Structure (SMILES) | EC50
O=C(NCc1ccccn1)c1csc(CCNCc2nc3ccccc3[nH]2)n1 [Example 12] | 8270 nM
O=C(NC1CCc2cccnc21)c1csc(CCNCc2nc3ccccc3[nH]2)n1 (stereo not drawn) [Example 39] | 2900 nM
O=C(NCc1ncccc1Cl)c1csc(CCNCc2nc3ccccc3[nH]2)n1 [Example 82] | 760 nM
Cc1cnccc1CNC(=O)c1csc(CCNCc2nc3ccccc3[nH]2)n1 [Example 90] | 4030 nM
O=C(NCc1ncccc1F)c1csc(CCNCCc2nc3ccccc3[nH]2)n1 [Example 94] | 530 nM
O=C(NCc1ncccc1F)c1cnn(CCNCCc2nc3ccccc3[nH]2)c1 [Example 111] | 620 nM
O=C(NCc1ncc(F)cc1F)c1csc(CCNCCc2nc3ccccc3[nH]2)n1 [Example 116] | 2790 nM
O=C(NCc1ncccc1F)c1csc(CNCCc2nc3ccccc3[nH]2)n1 [Example 118] | 2690 nM
O=C(NCc1ncccc1F)c1csc(CCNCCc2nc3cc(F)ccc3[nH]2)n1 [Example 120] | 1600 nM
O=C(NCc1cccnn1)c1csc(CCNCCc2nc3ccccc3[nH]2)n1 [Example 122] | 4330 nM
O=C(NCc1ncccc1F)c1coc(CCNCc2nc3ccccc3[nH]2)n1 [Example 126] | 1260 nM
O=C(NCc1ncccc1F)c1coc(CCNCCc2nc3ccccc3[nH]2)n1 [Example 127] | 420 nM
O=C(NCc1ncccc1F)c1csc(CCCNCc2nc3ccccc3[nH]2)n1 [Example 134] | 4090 nM
O=C(NCc1ccccn1)c1coc(CCNCc2nc3ccccc3[nH]2)n1 [Example 137] | 5750 nM
O=C(NCc1ncccc1Cl)c1cnn(CCNCc2nc3ccccc3[nH]2)c1 [Example 138] | 1720 nM
O=C(NCc1ncccc1Cl)c1coc(CCNCc2nc3ccccc3[nH]2)n1 [Example 141] | 1110 nM
O=C(NCc1ncccc1Cl)c1cnn(CCNCCc2nc3ccccc3[nH]2)c1 [Example 144] | 470 nM
O=C(NCc1ncccc1F)c1nc(CCNCc2nc3ccccc3[nH]2)sc1Cl [Example 151] | 720 nM

Structure (SMILES) | EC50
O=C(NCc1ncccc1F)c1csc(CCN(CCc2nc3ccccc3[nH]2)CCc2nc3ccccc3[nH]2)n1 [Example 152] | 170 nM
O=C(NCc1ncccc1F)c1nc(CCNCCc2nc3ccccc3[nH]2)sc1Cl [Example 154] | 740 nM
O=C(NC1CCc2cccnc21)c1csc(CCNCCc2nc3ccccc3[nH]2)n1 (stereo not drawn) [Example 158] | 620 nM
O=C(NCc1cccnn1)c1nc(CCNCc2nc3ccccc3[nH]2)sc1Cl [Example 161] | 17200 nM
O=C(NCc1ncccc1F)c1ncn(CCNCc2nc3ccccc3[nH]2)n1 [Example 169] | 8230 nM
O=C(NCc1ncccc1F)c1ncn(CCNCCc2nc3ccccc3[nH]2)n1 [Example 181] | 3720 nM
O=C(NCc1ncccc1F)c1csc(CCNCC(F)(F)c2nc3ccccc3[nH]2)n1 [Example 196] | 12700 nM
O=C(NCc1ncccc1F)c1coc(C2CN(CCc3nc4ccccc4[nH]3)C2)n1 [Example 208] | 500 nM
O=C(NCc1ncccc1F)c1cccc(CNCCc2nc3ccccc3[nH]2)c1 [Example 224] | 8200 nM
O=C(NCc1ncccc1F)c1coc(CCNCCc2nc3c(Cl)cccc3[nH]2)n1 [Example 226] | 2340 nM
O=C(NCc1ncccc1F)c1coc(CCNCCc2nc3c(F)cccc3[nH]2)n1 [Example 228] | 2120 nM
Cc1oc(CCNCCc2nc3ccccc3[nH]2)nc1C(=O)NCc1ncccc1F [Example 230] | 6380 nM
O=C(NCc1ncccc1F)c1coc(C2CN(CCc3nc4c(F)cccc4[nH]3)C2)n1 [Example 239] | 880 nM
O=C(NCc1ncccc1F)c1csc(CCNCCc2nc3c(F)cccc3[nH]2)n1 [Example 243] | 1400 nM
O=C(NCc1ncccc1F)c1coc(CCNCCc2nc3c(F)cc(F)cc3[nH]2)n1 [Example 249] | 1550 nM
O=C(NCc1ncccc1F)c1coc(CCNCCc2nc3cc(F)ccc3[nH]2)n1 [Example 250] | 460 nM
O=C(NCc1ncccc1F)c1cncc(C2CN(CCc3nc4ccccc4[nH]3)C2)c1 [compound 237] | 2460 nM
